Reference: ChEMBL document CHEMBL3244223, “Drug-induced modifications of the immune response. 1. Substituted 1-phenylisoquinolines” (1979)
Values joined by “and” are separate entries in the source; they are usually repeats but may differ in a detail not shown here. Equal values may be shown once. Active and inactive are the calls of the source. The rule behind the calls is not given here.

Assays:
Canis lupus familiaris = species: Canis lupus familiaris; assay: Inhibition of Mongrel dog ventricular muscle cAMP phosphodiesterase using adenosine 3',5' monophosphate as substrate at 100 uM by scintillation counting analysis in presence of [8-14C]adenosine relative to control
[1] = Antiallergic activity in antiovalbumin serum sensitized guinea pig lung slices assessed as inhibition of ovalbumin-induced histamine release at 100 uM preincubated for 5 mins followed by ovalbumin challenge measured after 15 mins by fluorometric analysis relative to control; type: functional, Cavia porcellus; settings: for inhibition at 100 µM: Cavia porcellus, Lung
Rattus norvegicus [2] = assay: Antiallergic activity in Sprague-Dawley rat assessed as inhibition of ovalbumin-induced wheal formation at 25 mg/kg, ip administered 5 mins prior to ovalbumin challenge measured after 30 mins by passive cutaneous anaphylaxis assay relative to control; type: functional; settings: route intraperitoneal; for inhibition in vivo at 25 mg/kg: Rattus norvegicus, Sprague-Dawley, ip
Rattus norvegicus [3] = assay: Antiallergic activity in ip dosed Sprague-Dawley rat assessed as inhibition of ovalbumin-induced wheal formation administered 5 mins prior to ovalbumin challenge measured after 30 mins by passive cutaneous anaphylaxis assay; type: functional
Rattus norvegicus [4] = assay: Antiallergic activity in Sprague-Dawley rat assessed as inhibition of ovalbumin-induced wheal formation at 25 mg/kg, po administered 10 mins prior to ovalbumin challenge measured after 30 mins by passive cutaneous anaphylaxis assay relative to control; type: functional
Rattus norvegicus [5] = assay: Antiallergic activity in Sprague-Dawley rat assessed as inhibition of serotonin-induced wheal formation at 25 mg/kg, ip administered 5 mins prior to serotonin challenge measured 5 mins post serotonin challenge relative to control; type: functional
[6] = Antiallergic activity in antiovalbumin serum sensitized guinea pig lung slices assessed as inhibition of ovalbumin-induced histamine release at 0.3 uM preincubated for 5 mins followed by ovalbumin challenge measured after 15 mins by fluorometric analysis relative to control; type: functional; settings: Cavia porcellus
[7] = Antiallergic activity in antiovalbumin serum sensitized guinea pig lung slices assessed as inhibition of ovalbumin-induced histamine release at 1.5 mM preincubated for 5 mins followed by ovalbumin challenge measured after 15 mins by fluorometric analysis relative to control; type: functional; settings: Cavia porcellus
Rattus norvegicus [8] = assay: Antiallergic activity in Sprague-Dawley rat assessed as inhibition of ovalbumin-induced wheal formation at 6 mg/kg, ip administered 5 mins prior to ovalbumin challenge measured after 30 mins by passive cutaneous anaphylaxis assay relative to control; type: functional; settings: route intraperitoneal

Row | SMILES | inhibition (Canis lupus familiaris) | inhibition at 100 µM [1] [%] | inhibition in vivo at 25 mg/kg (Rattus norvegicus [2]) [%] | also measured
1 | COc1cc2c(cc1OC)C(c1ccccc1OC)NCC2 (stereo unspecified) | 34% | 46 | 24 | 
2 | COc1cc2c(cc1OC)C1C(=O)Cc3ccccc3CN1CC2 (stereo unspecified) | 64% | 43 | 18 | 
3 | COc1cc2c(cc1OC)C(c1ccc(C(C)(C)C)cc1)NCC2.Cl (stereo unspecified) | 71% | 13 | 37 | ED50 (Rattus norvegicus [3]): 24 mg/kg; inhibition in vivo at 25 mg/kg (Rattus norvegicus [4]): 9%; inhibition (Rattus norvegicus [5]): inactive
4 | COc1cc2c(cc1OC)C(c1cccc(C(F)(F)F)c1)=NCC2 | 95% | 16 | 35 | 
5 | c1ccc(C2NCCc3ccccc32)cc1 (stereo unspecified) | 7% | 46 | 17 | 
6 | COc1cc2c(cc1OC)C(c1ccccc1OC)=NCC2 | 56% |  | 36 | 
7 | COc1cc2c(cc1OC)C(C1CCCCC1)NCC2 (stereo unspecified) | 19% | 66 | 49 | inhibition in vivo at 25 mg/kg (Rattus norvegicus [4]): 8%
8 | COc1cc2c(cc1OC)C(c1cccc(C(F)(F)F)c1)NCC2 (stereo unspecified) | 84% | 55 | 29 | 
9 | COc1cc2c(cc1OCc1ccccc1)C(c1ccccc1)=NCC2 | 95% | 18 | 36 | 
10 | COc1ccc2c(c1)C(c1ccccc1)NCC2.Cl (stereo unspecified) | 12% | 60 | 41 | ED50 (Rattus norvegicus [3]): 24 mg/kg; inhibition in vivo at 25 mg/kg (Rattus norvegicus [4]): 40%; inhibition (Rattus norvegicus [5]): inactive
11 | COc1cc2c(cc1OC)C(Cc1cc(OC)c(OCc3ccccc3)cc1Br)NCC2 (racemic) | 45% | 27 | 0 | 
12 | c1ccc2c(c1)CCNC2 | 0% | 31 | 18 | 
13 | COc1cc2c(cc1OC)C(Cc1cc(OCc3ccccc3)c(OC)cc1Br)NCC2 (racemic) | 55% | 33 | 0 | 
14 | COc1cc2c(cc1O)C(c1ccccc1)=NCC2 | 83% | 36 | 46 | 
15 | CC(C)NCC(O)c1ccc(O)c(O)c1 (stereo unspecified) [ISOPROTERENOL] |  |  |  | inhibition at 0.3 µM [6]: 49%
16 | COc1cc2c(cc1OC)C(C1CCCCC1)=NCC2 | 70% |  | 18 | 

Row | SMILES | inhibition (Canis lupus familiaris) | inhibition at 100 µM [1] [%] | inhibition in vivo at 25 mg/kg (Rattus norvegicus [2]) [%] | also measured
17 | Cn1c(=O)c2nc[nH]c2n(C)c1=O [THEOPHYLLINE] |  |  |  | inhibition at 1500 µM [7]: 50%
18 | COc1cc2c(cc1OC)C(c1nccc3cc(OC)c(OC)cc13)OC2=O (stereo unspecified) | 33% |  | 16 | 
19 | COc1cc2c(cc1OC)C(c1ccccc1)=NCC2 [listing 1 of 2 here] |  |  |  | inhibition (INH) [1]: 91%; inhibition (INH) (Rattus norvegicus [2]): 31%
20 | Cc1ccc2c(c1)C(c1ccccc1)NCC2 (stereo unspecified) | 4% | 0 | 51 | inhibition in vivo at 25 mg/kg (Rattus norvegicus [4]): 17%
21 | Cn1c(=O)c2[nH]cnc2n(C)c1=O | 51% |  |  | 
22 | COc1cc2c(cc1OCc1ccccc1)C(c1ccccc1)NCC2 (racemic) | 34% | 56 | 29 | inhibition in vivo at 25 mg/kg (Rattus norvegicus [5]; route intraperitoneal): 29%
23 | CCOC(=O)C(=O)N1CCc2cc(OC)c(OCc3ccccc3)cc2C1c1ccccc1 (stereo unspecified) | 0% | 0 | 18 | 
24 | COc1cc2c(cc1OC)C(c1ccccc1)=NCC2 [listing 2 of 2 here] | 97% and 91% |  |  | 
25 | COc1cc2c(cc1OC)C(c1ccccc1)NCC2.Cl (stereo unspecified) | 46% | 49 | 52 | ED50 (Rattus norvegicus [3]): 34 mg/kg; inhibition in vivo at 25 mg/kg (Rattus norvegicus [4]): 7%; inhibition (Rattus norvegicus [5]): inactive
26 | c1ccc(C2=NCCc3ccccc32)cc1 | 42% | 17 | 0 | 
27 | CI.COc1cc2c(cc1OC)C(c1ccccc1)=NCC2 |  |  | 22 | inhibition (INH) [1]: 63%
28 | COc1cc2c(cc1O)C(c1ccccc1)NCC2 (stereo unspecified) | 19% | 25 | 43 | inhibition in vivo at 25 mg/kg (Rattus norvegicus [4]): 6%
29 | O=C(O)c1cc(=O)c2c(OCC(O)COc3cccc4oc(C(=O)O)cc(=O)c34)cccc2o1 [CROMOLYN SODIUM] |  |  |  | inhibition in vivo at 6 mg/kg (Rattus norvegicus [8]): 52%
30 | Cc1ccc2c(c1)C(c1ccccc1)=NCC2 | 53% | 6 | 23 | 
31 | Clc1ccc2c(c1)C(c1ccccc1)=NCC2 | 44% | 0 | 34 | 
